Assay results taken from patent publication US8192962B2, “Processes for detecting toxic substances” (Daikin Industries, Ltd., priority 2001, dated 2012).

System: Energy system protein genes
Test: DNA chip mRNA expression in yeast, energy system protein genes (Table 4)
Format: cell-based, Saccharomyces cerevisiae S288C
How it was run: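 First, S288C yeast grown in YPD at 25° C. are dosed in log phase with one toxicant (growth-inhibiting, not lethal) for 2 h. Next, total RNA is extracted and poly(A) mRNA isolated and reverse-transcribed with Cy3/Cy5-dUTP. Finally, whole-genome chip fluorescence is read relative to unexposed cells.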

## Cl[C@H]1[C@H](Cl)[C@@H](Cl)[C@@H](Cl)[C@H](Cl)[C@H]1Cl [(7), γ-hexachlorocyclohexane]
Yeast gene YJR009C
  The level of expressed mRNA in the presence of chemical substance/The level of expressed mRNA in the absence of chemical substance: 1.6
Yeast gene YJR048W
  The level of expressed mRNA in the presence of chemical substance/The level of expressed mRNA in the absence of chemical substance: 0.3
Yeast gene YJR121W, cells incubated two hours with the chemical substance
  The level of expressed mRNA in the presence of chemical substance/The level of expressed mRNA in the absence of chemical substance: 1.0
Yeast gene YJR155W
  The level of expressed mRNA in the presence of chemical substance/The level of expressed mRNA in the absence of chemical substance: 1.7
Yeast gene YKL016C, cells incubated two hours with the chemical substance
  The level of expressed mRNA in the presence of chemical substance/The level of expressed mRNA in the absence of chemical substance: 1.5
Yeast gene YKL060C, cells incubated two hours with the chemical substance
  The level of expressed mRNA in the presence of chemical substance/The level of expressed mRNA in the absence of chemical substance: 1.2
Yeast gene YKL141W, cells incubated two hours with the chemical substance
  The level of expressed mRNA in the presence of chemical substance/The level of expressed mRNA in the absence of chemical substance: 0.5
Yeast gene YKL148C, cells incubated two hours with the chemical substance
  The level of expressed mRNA in the presence of chemical substance/The level of expressed mRNA in the absence of chemical substance: 0.6
Yeast gene YKR009C, cells incubated two hours with the chemical substance
  The level of expressed mRNA in the presence of chemical substance/The level of expressed mRNA in the absence of chemical substance: 1.0
Yeast gene YKR058W, cells incubated two hours with the chemical substance, 25° C., YPD medium
  The level of expressed mRNA in the presence of chemical substance/The level of expressed mRNA in the absence of chemical substance: 1.4
Yeast gene YKR097W
  The level of expressed mRNA in the presence of chemical substance/The level of expressed mRNA in the absence of chemical substance: 3.7
Yeast gene YLL041C, cells incubated two hours with the chemical substance
  The level of expressed mRNA in the presence of chemical substance/The level of expressed mRNA in the absence of chemical substance: 0.3
Yeast gene YLR038C, cells incubated two hours with the chemical substance
  The level of expressed mRNA in the presence of chemical substance/The level of expressed mRNA in the absence of chemical substance: 1.0
Yeast gene YLR044C, cells incubated two hours with the chemical substance
  The level of expressed mRNA in the presence of chemical substance/The level of expressed mRNA in the absence of chemical substance: 1.3
Yeast gene YLR134W, cells incubated two hours with the chemical substance
  The level of expressed mRNA in the presence of chemical substance/The level of expressed mRNA in the absence of chemical substance: 1.1
Yeast gene YLR258W, cells incubated two hours with the chemical substance
  The level of expressed mRNA in the presence of chemical substance/The level of expressed mRNA in the absence of chemical substance: 1.8
Yeast gene YLR284C, cells incubated two hours with the chemical substance
  The level of expressed mRNA in the presence of chemical substance/The level of expressed mRNA in the absence of chemical substance: 0.8
Yeast gene YLR295C, cells incubated two hours with the chemical substance, 25° C., YPD medium
  The level of expressed mRNA in the presence of chemical substance/The level of expressed mRNA in the absence of chemical substance: 1.1
Yeast gene YLR304C, cells incubated two hours with the chemical substance
  The level of expressed mRNA in the presence of chemical substance/The level of expressed mRNA in the absence of chemical substance: 0.6
Yeast gene YLR345W
  The level of expressed mRNA in the presence of chemical substance/The level of expressed mRNA in the absence of chemical substance: 1.2
Yeast gene YLR354C, cells incubated two hours with the chemical substance
  The level of expressed mRNA in the presence of chemical substance/The level of expressed mRNA in the absence of chemical substance: 1.1
Yeast gene YLR377C, cells incubated two hours with the chemical substance
  The level of expressed mRNA in the presence of chemical substance/The level of expressed mRNA in the absence of chemical substance: 0.9
Yeast gene YML087C
  The level of expressed mRNA in the presence of chemical substance/The level of expressed mRNA in the absence of chemical substance: 1.1
Yeast gene YML120C, cells incubated two hours with the chemical substance
  The level of expressed mRNA in the presence of chemical substance/The level of expressed mRNA in the absence of chemical substance: 0.8
Yeast gene YML129C, cells incubated two hours with the chemical substance
  The level of expressed mRNA in the presence of chemical substance/The level of expressed mRNA in the absence of chemical substance: 1.8
Yeast gene YMR073C, cells incubated two hours with the chemical substance
  The level of expressed mRNA in the presence of chemical substance/The level of expressed mRNA in the absence of chemical substance: 1.0
Yeast gene YMR118C
  The level of expressed mRNA in the presence of chemical substance/The level of expressed mRNA in the absence of chemical substance: 1.0
Yeast gene YMR205C, cells incubated two hours with the chemical substance
  The level of expressed mRNA in the presence of chemical substance/The level of expressed mRNA in the absence of chemical substance: 0.9
Yeast gene YMR261C, cells incubated two hours with the chemical substance
  The level of expressed mRNA in the presence of chemical substance/The level of expressed mRNA in the absence of chemical substance: 1.3
Yeast gene YMR267W, cells incubated two hours with the chemical substance, 25° C., YPD medium
  The level of expressed mRNA in the presence of chemical substance/The level of expressed mRNA in the absence of chemical substance: 1.2
Yeast gene YMR323W, cells incubated two hours with the chemical substance
  The level of expressed mRNA in the presence of chemical substance/The level of expressed mRNA in the absence of chemical substance: 1.1
Yeast gene YNL071W
  The level of expressed mRNA in the presence of chemical substance/The level of expressed mRNA in the absence of chemical substance: 1.4
Yeast gene YNL202W, cells incubated two hours with the chemical substance
  The level of expressed mRNA in the presence of chemical substance/The level of expressed mRNA in the absence of chemical substance: 0.9
Yeast gene YNL241C
  The level of expressed mRNA in the presence of chemical substance/The level of expressed mRNA in the absence of chemical substance: 3.2
Yeast gene YNL331C
  The level of expressed mRNA in the presence of chemical substance/The level of expressed mRNA in the absence of chemical substance: 1.9
Yeast gene YOL086C, cells incubated two hours with the chemical substance
  The level of expressed mRNA in the presence of chemical substance/The level of expressed mRNA in the absence of chemical substance: 1.9
Yeast gene YOL165C
  The level of expressed mRNA in the presence of chemical substance/The level of expressed mRNA in the absence of chemical substance: 1.4
Yeast gene YOR142W, cells incubated two hours with the chemical substance
  The level of expressed mRNA in the presence of chemical substance/The level of expressed mRNA in the absence of chemical substance: 1.0
Yeast gene YOR178C, cells incubated two hours with the chemical substance
  The level of expressed mRNA in the presence of chemical substance/The level of expressed mRNA in the absence of chemical substance: 0.9
Yeast gene YOR388C, cells incubated two hours with the chemical substance
  The level of expressed mRNA in the presence of chemical substance/The level of expressed mRNA in the absence of chemical substance: 1.0
Yeast gene YPL031C, cells incubated two hours with the chemical substance
  The level of expressed mRNA in the presence of chemical substance/The level of expressed mRNA in the absence of chemical substance: 1.6
Yeast gene YPL061W, cells incubated two hours with the chemical substance
  The level of expressed mRNA in the presence of chemical substance/The level of expressed mRNA in the absence of chemical substance: 0.5
Yeast gene YPL088W
  The level of expressed mRNA in the presence of chemical substance/The level of expressed mRNA in the absence of chemical substance: 3.7
Yeast gene YPL171C
  The level of expressed mRNA in the presence of chemical substance/The level of expressed mRNA in the absence of chemical substance: 1.7
Yeast gene YPL240C
  The level of expressed mRNA in the presence of chemical substance/The level of expressed mRNA in the absence of chemical substance: 1.4
Yeast gene YPL262W, cells incubated two hours with the chemical substance
  The level of expressed mRNA in the presence of chemical substance/The level of expressed mRNA in the absence of chemical substance: 1.3
Yeast gene YPL275W, cells incubated two hours with the chemical substance
  The level of expressed mRNA in the presence of chemical substance/The level of expressed mRNA in the absence of chemical substance: 1.1
Yeast gene YPL276W, cells incubated two hours with the chemical substance
  The level of expressed mRNA in the presence of chemical substance/The level of expressed mRNA in the absence of chemical substance: 1.2
Yeast gene YPR048W, cells incubated two hours with the chemical substance
  The level of expressed mRNA in the presence of chemical substance/The level of expressed mRNA in the absence of chemical substance: 0.9
Yeast gene YPR184W, cells incubated two hours with the chemical substance
  The level of expressed mRNA in the presence of chemical substance/The level of expressed mRNA in the absence of chemical substance: 1.3
